Laboratory results taken from patent US20070014727A1, “Contrast media for nuclear spin tomography with use of the overhauser effect” (priority 2005, published 2007).

Columns and labels:
Assay type in all cases: physicochemical
[1] = EPR measurement of oxygen sensitivity (EPR line widening after flushing with oxygen); conditions: for widening of the EPR line after the solution is flushed with oxygen: in toluene, reversible
[2] = Electron spin relaxation times by pulsed spin-echo EPR (X-band) and CW EPR line widths (L-band) in liquid solution; conditions: pulsed spin-echo EPR in X-band (9.5 GHz), CW EPR line widths in L-band (1.1 GHz)
Text: The substance N@C63(COOH)6 (III) according to the invention has long spin-relaxation times of the unpaired electron. It was possible to measure very long electronic relaxation times T1e≅150 μs and T2e≅22 μs in liquid solution, which are longer by at least one order of magnitude than that of the […], (see FIG. 4) with pulsed spin-echo EPR measurements in X-band (9.5 GHz EPR larmor frequency) and from CW EPR line widths in the L-band (1.1 GHz of EPR larmor frequency). From [ii] Table 3, page 8, in isotonic NaCl solution at 37° C.: “predeuterated trityl”: T1e≅13 μs, T2e≅8 μs; “deuterated hydroxy trityl”: T1e≅11 μs, T2e≅8 μs, “symmetrical trityl”: T1e≅9 μs, T2e≅9 μs.

[3] = Relaxometric measurement of proton relaxivity; conditions: aqueous solution, spin concentration 6 μm, 37° C., about 15 mT (600 kHz)
Experimental: Substance (III) has a relaxivity r1≅47 mM^−1s^−1 (compared to the trityl derivatives with relaxivity values of between 0.14 mM^−1s^−1 and 0.44 mM^−1s^−1 [ii], and [iii]) in aqueous solution with a spin concentration of 6 μm at a solvent temperature of 37° C. This unexpectedly high value is present at a magnetic field strength of about 15 mT, which corresponds to a radiofrequency of 600 kHz and thus to the conditions of very low magnetic field strength that are necessary for OMRI.

oxygen-sensitivity [1] | widening of the EPR line after the solution is flushed with oxygen [1] | electronic relaxation time T1e [2] | electronic relaxation time T2e [2] | relaxivity r1 [3] | Substance
elevated | 20 × |  |  |  | P@C60 [IX]
 |  | ~150 μs | ~22 μs | ~47 mM⁻¹ s⁻¹ | N@C63 (COONa)6 [III]
low | does not occur |  |  |  | N@C60 [I]
